PubChem BioAssay (NCI)
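Tested at 5 concentrations; 48 h exposure; 96-well plates; endpoints linearly interpolated, else capped at highest concentration. Here, GI50 denotes the concentration required for 50% inhibition of growth. The concentration for full growth arrest is given as TGI.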

Tests used:
Test in all cases: NCI tumour cell line growth inhibition, 48 h
[1] = tested on: 786-0 renal
[2] = tested on: A498 renal
[3] = tested on: A549 NSCLC
[4] = tested on: ACHN renal
[5] = tested on: BT-549 breast
[6] = tested on: CAKI-1 renal
[7] = tested on: CCRF-CEM leukemia
[8] = tested on: COLO 205 colon
[9] = tested on: DU-145 prostate
[10] = tested on: EKVX NSCLC
[11] = tested on: HCC-2998 colon
[12] = tested on: HCT-116 colon
[13] = tested on: HCT-15 colon
[14] = tested on: HL-60(TB) leukemia
[15] = tested on: HOP-62 NSCLC
[16] = tested on: HOP-92 NSCLC
[17] = tested on: HS 578T breast
[18] = tested on: HT29 colon
[19] = tested on: IGROV1 ovarian
[20] = tested on: K-562 leukemia
[21] = tested on: KM12 colon
[22] = tested on: LOX IMVI melanoma
[23] = tested on: M14 melanoma
[24] = tested on: MALME-3M melanoma
[25] = tested on: MCF7 breast
[26] = tested on: MDA-MB-231 breast
[27] = tested on: MDA-MB-435
[28] = tested on: MDA-MB-468 breast
[29] = tested on: MOLT-4 leukemia
[30] = tested on: NCI-H226 lung
[31] = tested on: NCI-H23 lung
[32] = tested on: NCI-H460 lung
[33] = tested on: NCI-H522 lung
[34] = tested on: OVCAR-3 ovarian
[35] = tested on: OVCAR-4 ovarian
[36] = tested on: OVCAR-5 ovarian
[37] = tested on: OVCAR-8 ovarian
[38] = tested on: PC-3 prostate
[39] = tested on: RPMI-8226 leukemia
[40] = tested on: RXF 393 renal
[41] = tested on: SF-268 CNS
[42] = tested on: SF-295 CNS
[43] = tested on: SF-539 CNS
[44] = tested on: SK-MEL-2 melanoma
[45] = tested on: SK-MEL-28 melanoma
[46] = tested on: SK-MEL-5 melanoma
[47] = tested on: SK-OV-3 ovarian
[48] = tested on: SN12C renal
[49] = tested on: SNB-19 CNS
[50] = tested on: SNB-75 CNS
[51] = tested on: SR leukemia
[52] = tested on: SW-620 colon
[53] = tested on: T-47D breast
[54] = tested on: TK-10 renal
[55] = tested on: U251 CNS
[56] = tested on: UACC-257 melanoma
[57] = tested on: UACC-62 melanoma
[58] = tested on: UO-31 renal

O=C([Se]C1C=CCCC1)c1ccc(C(=O)[Se]C2C=CCCC2)s1 (stereo not drawn)
GI50 [1]: 2.02 µM | TGI [1]: 4.08 µM | GI50 [2]: 2.47 µM | TGI [2]: 7.29 µM | GI50 [3]: 3.09 µM | TGI [3]: 18.7 µM | GI50 [4]: 2.32 µM | TGI [4]: 5.58 µM | GI50 [5]: 3.55 µM | TGI [5]: 11.7 µM | GI50 [6]: 2.93 µM | TGI [6]: 10.2 µM | GI50 [7]: 2.68 µM | TGI [7]: 8.66 µM | GI50 [8]: 2.42 µM | TGI [8]: 7.25 µM | GI50 [9]: 3.48 µM | TGI [9]: 11.5 µM | GI50 [10]: 2.01 µM | TGI [10]: 4.7 µM | GI50 [11]: 2.49 µM | TGI [11]: 6.19 µM | GI50 [12]: 2.87 µM | TGI [12]: 8.75 µM | GI50 [13]: 3.1 µM | TGI [13]: 11.6 µM | GI50 [14]: 1.94 µM | TGI [14]: 4.81 µM | GI50 [15]: 1.17 µM | TGI [15]: 6.65 µM | GI50 [16]: 2.85 µM | TGI [16]: 11 µM | GI50 [17]: 2.36 µM | TGI [17]: 6.69 µM | GI50 [18]: 4.01 µM | TGI [18]: 25.7 µM | GI50 [19]: 1.81 µM | TGI [19]: 3.48 µM | GI50 [20]: 3.96 µM | TGI [20]: 49.7 µM | GI50 [21]: 2.76 µM | TGI [21]: 7.08 µM | GI50 [22]: 2.71 µM | TGI [22]: 8.88 µM | GI50 [23]: 2.02 µM | TGI [23]: 4.56 µM | GI50 [24]: 2.27 µM | TGI [24]: 5.52 µM | GI50 [25]: 2.79 µM | TGI [25]: 10.6 µM | GI50 [26]: 2.02 µM | TGI [26]: 4.16 µM | GI50 [27]: 6.42 µM | TGI [27]: 23.1 µM | GI50 [28]: 2.13 µM | TGI [28]: 5.18 µM | GI50 [29]: 2.89 µM | TGI [29]: 8.34 µM | GI50 [30]: 3.42 µM | TGI [30]: 15.2 µM | GI50 [31]: 1.95 µM | TGI [31]: 4.18 µM | GI50 [32]: 1.43 µM | TGI [32]: 10.1 µM | GI50 [33]: 1.71 µM | TGI [33]: 3.32 µM | GI50 [34]: 2.13 µM | TGI [34]: 4.7 µM | GI50 [35]: 2.19 µM | TGI [35]: 4.98 µM | GI50 [36]: 2.07 µM | TGI [36]: 4.75 µM | GI50 [37]: 1.79 µM | TGI [37]: 3.47 µM | GI50 [38]: 1.95 µM | TGI [38]: 5.95 µM | GI50 [39]: 2.53 µM | TGI [39]: 6.53 µM | GI50 [40]: 2.37 µM | TGI [40]: 5.69 µM | GI50 [41]: 3.34 µM | TGI [41]: 16.9 µM | GI50 [42]: 0.366 µM | TGI [42]: 1.64 µM | GI50 [43]: 1.82 µM | TGI [43]: 3.23 µM | GI50 [44]: 1.77 µM | TGI [44]: 3.71 µM | GI50 [45]: 3.11 µM | TGI [45]: 11.6 µM | GI50 [46]: 1.83 µM | TGI [46]: 3.99 µM | GI50 [47]: 2.33 µM | TGI [47]: 5.33 µM | GI50 [48]: 2.05 µM | TGI [48]: 4.34 µM | GI50 [49]: 1.35 µM | TGI [49]: 3.56 µM | GI50 [50]: 1.38 µM | TGI [50]: 2.94 µM | GI50 [51]: 2.26 µM | TGI [51]: 5.53 µM | GI50 [52]: 2.32 µM | TGI [52]: 6.01 µM | GI50 [53]: 2.17 µM | TGI [53]: 5.19 µM | GI50 [54]: 1.87 µM | TGI [54]: 3.88 µM | GI50 [55]: 1.94 µM | TGI [55]: 4.47 µM | GI50 [56]: 2.44 µM | TGI [56]: 6.89 µM | GI50 [57]: 1.92 µM | TGI [57]: 4.2 µM | GI50 [58]: 1.73 µM | TGI [58]: 3.38 µM

COc1cc(/C=N/NC(=O)c2ccc3nc(-c4ccc(Cl)cc4)[nH]c3c2)cc(OC)c1OC
GI50 [1]: 4.88 µM | TGI [1]: 18.7 µM | GI50 [2]: 26.4 µM | TGI [2]: 77.6 µM | GI50 [3]: 7.55 µM | TGI [3]: 38.4 µM | GI50 [4]: 7.93 µM | TGI [4]: > 100 µM | GI50 [5]: 2.69 µM | TGI [5]: 9.27 µM | GI50 [6]: 11.2 µM | TGI [6]: 30.8 µM | GI50 [7]: 6.27 µM | TGI [7]: > 100 µM | GI50 [8]: 2.84 µM | TGI [8]: 24.4 µM | GI50 [9]: 6.77 µM | TGI [9]: 20.9 µM | GI50 [10]: 14.8 µM | TGI [10]: 97.2 µM | GI50 [11]: 11.1 µM | TGI [11]: 29.3 µM | GI50 [12]: 3.26 µM | TGI [12]: 10.6 µM | GI50 [13]: 73 µM | TGI [13]: > 100 µM | GI50 [14]: 3.9 µM | TGI [14]: 60.4 µM | GI50 [15]: 4.68 µM | TGI [15]: 16.4 µM | GI50 [16]: 5.95 µM | TGI [16]: 23.2 µM | GI50 [17]: 2.58 µM | TGI [17]: 7 µM | GI50 [18]: 2.98 µM | TGI [18]: 15.5 µM | GI50 [19]: 11 µM | TGI [19]: 30.8 µM | GI50 [20]: 1.96 µM | TGI [20]: 6.33 µM | GI50 [21]: 4.5 µM | TGI [21]: 17.9 µM | GI50 [22]: 4.67 µM | TGI [22]: 16.1 µM | GI50 [23]: 3.77 µM | TGI [23]: 21.1 µM | GI50 [24]: 1.12 µM | TGI [24]: 3.36 µM | GI50 [25]: 0.663 µM | TGI [25]: 12.5 µM | GI50 [26]: 3.39 µM | TGI [26]: 11.1 µM | GI50 [27]: 4.13 µM | TGI [27]: 15.3 µM | GI50 [28]: 3.27 µM | TGI [28]: 10.1 µM | GI50 [29]: 3.58 µM | TGI [29]: 28.1 µM | GI50 [30]: 1.31 µM | TGI [30]: 16.1 µM | GI50 [31]: 4.72 µM | TGI [31]: 18.8 µM | GI50 [32]: 3.19 µM | TGI [32]: 10.2 µM | GI50 [33]: 4.9 µM | TGI [33]: 20.9 µM | GI50 [34]: 2.28 µM | TGI [34]: 4.88 µM | GI50 [35]: 2.35 µM | TGI [35]: 7.29 µM | GI50 [36]: 15.6 µM | TGI [36]: 41.2 µM | GI50 [37]: 3.87 µM | TGI [37]: 18.9 µM | GI50 [38]: 5.73 µM | TGI [38]: > 100 µM | GI50 [39]: 3.21 µM | TGI [39]: > 100 µM | GI50 [40]: 2.22 µM | TGI [40]: 9.02 µM | GI50 [41]: 4.4 µM | TGI [41]: 20.5 µM | GI50 [42]: 4.18 µM | TGI [42]: 15.9 µM | GI50 [43]: 2.02 µM | TGI [43]: 6.98 µM | GI50 [44]: 11 µM | TGI [44]: 25 µM | GI50 [45]: 1.83 µM | TGI [45]: 6.78 µM | GI50 [46]: 2.83 µM | TGI [46]: 12.2 µM | GI50 [47]: 15 µM | TGI [47]: 38.1 µM | GI50 [48]: 3.22 µM | TGI [48]: 11 µM | GI50 [49]: 3.42 µM | TGI [49]: 10.5 µM | GI50 [50]: 1.28 µM | TGI [50]: 6.68 µM | GI50 [51]: 3.76 µM | TGI [51]: 19.1 µM | GI50 [52]: 4.4 µM | TGI [52]: 17.4 µM | GI50 [53]: 3.48 µM | TGI [53]: 21 µM | GI50 [54]: 28.8 µM | TGI [54]: > 100 µM | GI50 [55]: 2.59 µM | TGI [55]: 5.9 µM | GI50 [56]: 4.67 µM | TGI [56]: 18.8 µM | GI50 [57]: 1.24 µM | TGI [57]: 12.2 µM | GI50 [58]: > 100 µM | TGI [58]: > 100 µM

CC[C@H](CC#N)OC(=O)N[C@@H](C)c1cccc(NC(=O)Nc2ccc(-c3cnco3)c(OC)c2)c1
GI50 [28]: 0.531 µM | TGI [28]: 18.2 µM

C#CC[C@@H]1C[C@]2(C)[C@H]3CC=C4[C@H]5CC(C)(C)CC[C@]5(C(=O)NCCCCN)CC[C@@]4(C)[C@]3(C)CC[C@H]2C(C)(C)[C@H]1OC(C)=O
GI50 [28]: 1.71 µM | TGI [28]: 3.27 µM

COC(=O)CNC(=O)[C@@H](OC)[C@@H]1Cc2cc3cc(OC4CC(OC5CC(O)C(O)C(C)O5)C(O)C(C)O4)c(C)c(O)c3c(O)c2C(=O)[C@H]1OC1CC(OC2CC(OC3CC(C)(O)C(O)C(C)O3)C(O)C(C)O2)C(O)C(C)O1 (stereo partly drawn)
GI50 [28]: 0.162 µM | TGI [28]: 1.31 µM

ClCc1c(Cl)c(Cl)c(Cl)c(CCl)c1Cl
GI50 [28]: 1.57 µM | TGI [28]: 3.11 µM

CSc1ccc(/C=C2\N=C(c3ccccc3)N(c3nc4ccc(Sc5ccccc5)cc4[nH]3)C2=O)cc1
GI50 [28]: 4.44 µM | TGI [28]: 25.8 µM

CC(CNC(Cc1ccccc1)c1ccccc1)NC(Cc1ccccc1)c1ccccc1 (stereo not drawn)
GI50 [28]: 1.74 µM | TGI [28]: 3.67 µM

O=C(CCl)N1c2ccccc2Sc2c1ccc1ccccc21
GI50 [28]: 2.09 µM | TGI [28]: 3.95 µM

COc1cc[nH]c1/C=C1\C(=O)Nc2ccc(F)c(I)c21
GI50 [28]: > 5.39 µM | TGI [28]: > 25 µM
